The values that follow are results of earlier work, collected in patent US7265145B2, “Substituted piperidines and pyrrolidines as calcium sensing receptor modulators and method” (Bristol-Myers Squibb Company, priority 2003, dated 2007).

For data set [1] the following is noted: intravenous bolus injection.
The conditions of data set [2]: OVX rats; oral administration; in the presence of an anti-resorptive agent.
For data set [3] the following is noted: postmenopausal women; placebo-controlled trial.

Consider `CC(C)(Cc1ccc2ccccc2c1)NC[C@@H](O)COc1cccc(Cl)c1C#N` [NPS-2143], for which the “serum PTH” value in data set [1] was “transient increase in serum PTH”. Further, the bone mass result in data set [2] is given as “increase in bone mass”.
“PTH peptide fragment (1-34): PTH peptide fragment (1-34) of parathyroid hormone, stimulator of bone formation (SVSEIQLMHNLGKHLNSMERVEWLRKKLQDVHNF; Parathyroid hormone; UniProt P01270 32-65, looked up, fragment)”: in data set [3], the “reduce the risk of non-traumatic, non-spine fractures” value is reported as 54% and the “reduce the risk of spine fractures” value is 65%.
